Measured values as given in ChEMBL document CHEMBL4818984, “Kojic acid-natural product conjugates as mushroom tyrosinase inhibitors” (Eur J Med Chem, 2020).
One block for each molecule: values may come before it. Calls of active or inactive are those of the source. No cut-off for these calls is given here.

Assays:
[1] = biological target: T1, Tyrosinase (Agaricus bisporus, UniProt O42713); assay: Inhibition of mushroom tyrosinase assessed as reduction in dopachrome formation using L-DOPA as substrate by ELISA
T1 sequence (O42713 whole entry): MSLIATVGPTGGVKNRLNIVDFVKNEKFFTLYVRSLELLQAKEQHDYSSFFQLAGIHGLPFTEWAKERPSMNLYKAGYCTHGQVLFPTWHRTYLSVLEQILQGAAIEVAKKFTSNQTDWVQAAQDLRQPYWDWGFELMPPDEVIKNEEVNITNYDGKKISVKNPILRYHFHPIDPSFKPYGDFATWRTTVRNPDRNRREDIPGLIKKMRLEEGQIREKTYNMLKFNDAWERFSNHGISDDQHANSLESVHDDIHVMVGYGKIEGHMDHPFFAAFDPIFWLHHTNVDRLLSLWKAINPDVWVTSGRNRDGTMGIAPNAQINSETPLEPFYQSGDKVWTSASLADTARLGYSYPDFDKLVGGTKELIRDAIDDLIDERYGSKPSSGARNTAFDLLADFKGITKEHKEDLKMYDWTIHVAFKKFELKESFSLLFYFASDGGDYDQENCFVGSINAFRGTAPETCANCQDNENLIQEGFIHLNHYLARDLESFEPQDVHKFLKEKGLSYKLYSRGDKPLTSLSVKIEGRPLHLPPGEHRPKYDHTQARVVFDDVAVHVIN

[2] = Antioxidant activity assessed as DPPH radical scavenging activity at 10 uM; assay type: functional
[3] = biological target: T1, Tyrosinase; assay: Inhibition of mushroom tyrosinase using L-tyrosine as substrate measured after 15 mins by microplate reader analysis
[4] = biological target: T2, Tyrosinase (Agaricus bisporus) (UniProt O42713); assay: Potency index, ratio of kojic acid IC50 to compound IC50 for inhibition of mushroom tyrosinase using L-DOPA as substrate by ELISA
T2 sequence (whole entry): T1 sequence (O42713 whole entry)

[5] = biological target: T1, Tyrosinase; assay: Inhibition of mushroom tyrosinase using L-tyrosine as substrate by HPLC analysis
[6] = biological target: T1, Tyrosinase; assay: Competitive inhibition of mushroom tyrosinase using L-DOPA as substrate by Lineweaver-Burk double reciprocal plot analysis
[7] = biological target: T2, Tyrosinase (Agaricus bisporus); assay: Non-competitive inhibition of mushroom tyrosinase using L-DOPA as substrate by Lineweaver-Burk double reciprocal plot analysis
[8] = system: B16-F10; assay: Antimelanogenic activity against mouse B16-F10 cells assessed as reduction of melanin content at 5 uM measured after 24 hrs by microplate reader assay; assay type: functional, cell-based
[9] = system: B16-F10; assay: cells; details: Mus musculus
Description: Cytotoxicity against mouse B16-F10 cells assessed as reduction in cell viability by MTT assay

[10] = system: HFF; assay: cells; details: Homo sapiens
Description: Cytotoxicity against human HFF cells assessed as reduction in cell viability by MTT assay

[11] = biological target: T2, Tyrosinase (Agaricus bisporus); assay: Inhibition of mushroom tyrosinase using L-DOPA as substrate at 0.5 uM in presence of 0.005 to 1.2 mM Cu2+ by ELISA
[12] = biological target: T1, Tyrosinase; assay: Inhibition of mushroom tyrosinase using L-tyrosine as substrate measured after 30 mins by microplate reader analysis
[13] = biological target: T3, Tyrosinase (Homo sapiens, UniProt P14679); assay: Inhibition of tyrosinase (unknown origin)
T3 sequence (P14679 whole entry): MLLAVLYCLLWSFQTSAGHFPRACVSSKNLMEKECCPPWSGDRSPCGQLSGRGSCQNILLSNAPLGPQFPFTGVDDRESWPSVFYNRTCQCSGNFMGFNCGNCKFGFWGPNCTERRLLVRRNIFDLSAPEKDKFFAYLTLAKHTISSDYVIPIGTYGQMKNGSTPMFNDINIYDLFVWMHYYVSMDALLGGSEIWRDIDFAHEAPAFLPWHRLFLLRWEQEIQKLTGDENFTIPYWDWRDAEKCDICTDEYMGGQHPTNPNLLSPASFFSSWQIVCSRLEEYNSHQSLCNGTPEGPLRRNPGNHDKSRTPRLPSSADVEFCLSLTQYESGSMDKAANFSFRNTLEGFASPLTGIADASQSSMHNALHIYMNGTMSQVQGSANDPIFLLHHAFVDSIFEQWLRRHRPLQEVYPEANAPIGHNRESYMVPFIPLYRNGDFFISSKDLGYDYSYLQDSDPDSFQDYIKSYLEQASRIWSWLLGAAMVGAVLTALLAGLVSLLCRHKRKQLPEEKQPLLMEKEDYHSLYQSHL

[14] = compound: COc1cc(C(C)=O)ccc1OCc1cn(Cc2cc(=O)c(O)co2)nn1; assay: (§1) Mixed-type of inhibition of mushroom tyrosinase assessed as Vmax using L-DOPA as substrate at 0.025 uM measured at 475 nm by Lineweaver-Burk double reciprocal plot analysis (reference value: […] to […] deltaOD/min); details: Agaricus bisporus
[15] = compound: Cc1ccc(C(C)C)cc1OCc1cn(Cc2cc(=O)c(O)co2)nn1; assay: as §1; details: Agaricus bisporus
[16] = compound: O=c1cc(OCc2cn(Cc3cc(=O)c(O)co3)nn2)c2ccccc2o1; assay: as §1; details: Agaricus bisporus
[17] = compound: COc1cc(C(C)=O)ccc1OCc1cn(Cc2cc(=O)c(O)co2)nn1; assay: (§2) Mixed-type of inhibition of mushroom tyrosinase assessed as Vmax using L-DOPA as substrate at 0.05 uM measured at 475 nm by Lineweaver-Burk double reciprocal plot analysis (reference value: […] to […] deltaOD/min); details: Agaricus bisporus
[18] = compound: Cc1ccc(C(C)C)cc1OCc1cn(Cc2cc(=O)c(O)co2)nn1; assay: as §2; details: Agaricus bisporus
[19] = compound: O=c1cc(OCc2cn(Cc3cc(=O)c(O)co3)nn2)c2ccccc2o1; assay: as §2; details: Agaricus bisporus
[20] = compound: COc1cc(C(C)=O)ccc1OCc1cn(Cc2cc(=O)c(O)co2)nn1; assay: (§3) Mixed-type of inhibition of mushroom tyrosinase assessed as Vmax using L-DOPA as substrate at 0.1 uM measured at 475 nm by Lineweaver-Burk double reciprocal plot analysis (reference value: […] to […] deltaOD/min); details: Agaricus bisporus
[21] = compound: Cc1ccc(C(C)C)cc1OCc1cn(Cc2cc(=O)c(O)co2)nn1; assay: as §3; details: Agaricus bisporus
[22] = compound: O=c1cc(OCc2cn(Cc3cc(=O)c(O)co3)nn2)c2ccccc2o1; assay: as §3; details: Agaricus bisporus
[23] = compound: COc1cc(C(C)=O)ccc1OCc1cn(Cc2cc(=O)c(O)co2)nn1; assay: (§4) Mixed-type of inhibition of mushroom tyrosinase assessed as Km using L-DOPA as substrate at 0.025 uM by Lineweaver-Burk double reciprocal plot analysis (reference value: […] to […] mM); details: Agaricus bisporus
[24] = compound: Cc1ccc(C(C)C)cc1OCc1cn(Cc2cc(=O)c(O)co2)nn1; assay: as §4; details: Agaricus bisporus
[25] = compound: O=c1cc(OCc2cn(Cc3cc(=O)c(O)co3)nn2)c2ccccc2o1; assay: as §4; details: Agaricus bisporus
[26] = compound: COc1cc(C(C)=O)ccc1OCc1cn(Cc2cc(=O)c(O)co2)nn1; assay: (§5) Mixed-type of inhibition of mushroom tyrosinase assessed as Km using L-DOPA as substrate at 0.05 uM by Lineweaver-Burk double reciprocal plot analysis (reference value: […] to […] mM); details: Agaricus bisporus
[27] = compound: Cc1ccc(C(C)C)cc1OCc1cn(Cc2cc(=O)c(O)co2)nn1; assay: as §5; details: Agaricus bisporus
[28] = compound: O=c1cc(OCc2cn(Cc3cc(=O)c(O)co3)nn2)c2ccccc2o1; assay: as §5; details: Agaricus bisporus
[29] = compound: COc1cc(C(C)=O)ccc1OCc1cn(Cc2cc(=O)c(O)co2)nn1; assay: (§6) Mixed-type of inhibition of mushroom tyrosinase assessed as Km using L-DOPA as substrate at 0.1 uM by Lineweaver-Burk double reciprocal plot analysis (reference value: […] to […] mM); details: Agaricus bisporus
[30] = compound: Cc1ccc(C(C)C)cc1OCc1cn(Cc2cc(=O)c(O)co2)nn1; assay: as §6; details: Agaricus bisporus
[31] = compound: O=c1cc(OCc2cn(Cc3cc(=O)c(O)co3)nn2)c2ccccc2o1; assay: as §6; details: Agaricus bisporus
[32] = compound: O=c1cc(OCc2cn(Cc3cc(=O)c(O)co3)nn2)c2ccccc2o1; assay: Mixed-type of inhibition of mushroom tyrosinase assessed as Vmax using L-DOPA as substrate at 0.5 uM measured at 475 nm by Lineweaver-Burk double reciprocal plot analysis (reference value: […] deltaOD/min); details: Agaricus bisporus

Molecule: COc1cc(C=O)cc(OC)c1OCc1cn(Cc2cc(=O)c(O)co2)nn1
IC50 [1]: 3750 nM
Activity [2]: inactive

Molecule: COc1cc(C=O)ccc1O [VANILLIN]
IC50 [3]: 4.1 mM

Molecule: CC(=O)c1ccc(OCc2cn(Cc3cc(=O)c(O)co3)nn2)cc1
IC50 [1]: 1210 nM
Activity [2]: inactive

Molecule: COc1ccc(C=O)cc1O [ISOVANILLIN]
IC50 [5]: > 500 µM

Molecule: C=CCc1ccc(OCc2cn(Cc3cc(=O)c(O)co3)nn2)c(OC)c1
IC50 [1]: 1070 nM
Activity [2]: inactive

Molecule: COc1cc(C=O)ccc1OCc1cn(Cc2cc(=O)c(O)co2)nn1
IC50 [1]: 1990 nM
Activity [2]: inactive

Molecule: Oc1ccc2c(c1)OCO2
IC50 [12]: 6.7 µM

Molecule: C/C=C/c1ccc(O)c(OC)c1
IC50 [13]: 33.3 µM

Molecule: O=C(O)c1ccc(OCc2cn(Cc3cc(=O)c(O)co3)nn2)cc1
IC50 [1]: 3130 nM
Activity [2]: inactive

Molecule: Cc1ccc(C(C)C)c(OCc2cn(Cc3cc(=O)c(O)co3)nn2)c1
IC50 [1]: 690 nM
Activity [2]: inactive

Molecule: C=CCc1ccc(O)c(OC)c1 [EUGENOL]
IC50 [3]: 0.923 mM

Molecule: O=Cc1ccc(OCc2cn(Cc3cc(=O)c(O)co3)nn2)cc1
IC50 [1]: 1050 nM
Activity [2]: inactive

Molecule: COc1ccc(C=O)cc1OCc1cn(Cc2cc(=O)c(O)co2)nn1
IC50 [1]: 1950 nM
Activity [2]: inactive

B1: Tyrosinase (Agaricus bisporus), O42713 (protein)
chain: T1 sequence (O42713 whole entry)
Vmax [14]: 0.232 deltaOD/min
Vmax [15]: 0.241 deltaOD/min
Vmax [16]: 0.21 deltaOD/min
Vmax [17]: 0.208 deltaOD/min
Vmax [18]: 0.219 deltaOD/min
Vmax [19]: 0.176 deltaOD/min
Vmax [20]: 0.183 deltaOD/min
Vmax [21]: 0.192 deltaOD/min
Vmax [22]: 0.122 deltaOD/min
Km [23]: 1580 µM
Km [24]: 1520 µM
Km [25]: 1710 µM
Km [26]: 1920 µM
Km [27]: 1830 µM
Km [28]: 2020 µM
Km [29]: 2110 µM
Km [30]: 2020 µM
Km [31]: 2250 µM
Vmax [32]: 0.021 deltaOD/min

More lines, in order of falling IC50 [1], values ahead:

IC50 [1]: 520 nM
Molecule: C/C=C/c1ccc(OCc2cn(Cc3cc(=O)c(O)co3)nn2)c(OC)c1
Activity [2]: inactive

IC50 [1]: 460 nM
Molecule: COC(=O)c1ccc(OCc2cn(Cc3cc(=O)c(O)co3)nn2)cc1
Activity [2]: inactive

IC50 [1]: 230 nM
Molecule: O=c1ccc2ccc(OCc3cn(Cc4cc(=O)c(O)co4)nn3)cc2o1
Activity [2]: inactive

IC50 [1]: 70 nM
Ki [6]: 90 nM
Kis [7]: 0.21 µM
Ratio IC50 [4]: 133
IC50 [9]: 408 µM
Molecule: Cc1ccc(C(C)C)cc1OCc1cn(Cc2cc(=O)c(O)co2)nn1
Activity [2]: inactive
Activity [8]: Active
IC50 [10]: 193 µM

IC50 [1]: 60 nM
Ratio IC50 [4]: 133
Molecule: O=c1cc(Cn2cc(COc3ccc4c(c3)OCO4)nn2)occ1O
Activity [2]: inactive

IC50 [1]: 30 nM
Ki [6]: 70 nM
Kis [7]: 0.19 µM
Ratio IC50 [4]: 133
IC50 [9]: 416 µM
Molecule: COc1cc(C(C)=O)ccc1OCc1cn(Cc2cc(=O)c(O)co2)nn1
Activity [2]: inactive
IC50 [10]: 213 µM

IC50 [1]: 20 nM
Ki [6]: 40 nM
Kis [7]: 0.12 µM
inhibition [11]: inactive
Ratio IC50 [4]: > 460
IC50 [9]: 143 µM
Molecule: O=c1cc(OCc2cn(Cc3cc(=O)c(O)co3)nn2)c2ccccc2o1
Activity [2]: inactive
Activity [8]: Active
IC50 [10]: 194 µM
